We go through nine compounds from BindingDB's records for doi:10.7270/Q2H70D5W (University of Pittsburgh, 2007).

In this assay the target is Gag-Pol polyprotein (Human immunodeficiency virus type 1 group M subtype B (isolate HXB2), UniProt P04585). The experiment in a line: concentration-response of HIV-1 RNase H blockers – biochemical, probe assessment, dose response (AID 652). To be noted: pH 8; 23 °C.
By IC50 is commonly meant the point on the concentration scale where inhibition reaches its midpoint. A high value points to weaker potency. Compound `CCOC(=O)CSc1nc2cc(C(=O)NCc3ccco3)ccc2c(=O)n1C1CCCCC1` [2-[[3-cyclohexyl-7-(2-furfurylcarbamoyl)-4-keto-quinazolin-2-yl]thio]acetic acid ethyl ester] registered an IC50 of 6.07 µM.
Then `COC(=O)c1ccc2c(=O)n(Cc3ccco3)c(SCC(=O)Nc3ccccc3Cl)nc2c1` [2-[[2-(2-chloroanilino)-2-keto-ethyl]thio]-3-(2-furfuryl)-4-keto-quinazoline-7-carboxylic acid methyl ester], with 4.65 µM.
Then `COc1ccc(OC)c(Nc2nc(-c3ccc(O)c(O)c3)cs2)c1` [4-[2-(2,5-Dimethoxy-phenylamino)-thiazol-4-yl]-benzene-1,2-diol], with 1.48 µM.
As for `CCCc1cc(C(=O)Nc2sc(C)c(C)c2C(=O)OCC)no1` [4,5-dimethyl-2-[(5-propylisoxazole-3-carbonyl)amino]thiophene-3-carboxylic acid ethyl ester], inhibition was half-maximal at 2.53 µM (IC50).
`COC(=O)c1ccc2c(c1)N(Cc1nc(-c3ccc(Cl)cc3)oc1C)C(=O)C1CCCN21` (centres undefined) [5-[[2-(4-chlorophenyl)-5-methyl-4-oxazolyl]methyl]-4-oxo-1,2,3,3a-tetrahydropyrrolo[1,2-a]quinoxaline-7-carboxylic acid methyl ester] came in with an IC50 of 2.86 µM.
Then `Cc1cccc(C(=O)OCC(=O)Nc2ccc(N3CCCCC3)cc2)c1O` [2-hydroxy-3-methyl-benzoic acid [2-keto-2-(4-piperidinoanilino)ethyl] ester], with 13.2 µM; and `CCOC(=O)c1c(NC(=O)c2cc(C3CC3)on2)sc2c1CCCC2` [2-[(5-cyclopropylisoxazole-3-carbonyl)amino]-4,5,6,7-tetrahydrobenzothiophene-3-carboxylic acid ethyl ester], with 1.7 µM.
Take `Cc1ccc(-c2cc(C(F)F)n3ncc(C(=O)NCc4ccco4)c3n2)cc1` [7-(difluoromethyl)-N-(2-furanylmethyl)-5-(4-methylphenyl)-3-pyrazolo[1,5-a]pyrimidinecarboxamide]: inhibition was half-maximal at 15.3 µM (IC50).
On to `COC(=O)c1ccccc1NC(=O)c1ccc2c(c1)C(=O)N(Cc1ccco1)C2=O` [2-[[2-(2-furfuryl)-1,3-diketo-isoindoline-5-carbonyl]amino]benzoic acid methyl ester], for which the IC50 was 7.36 µM.
